A word on the IC50: it is the concentration that gives 50% inhibition.

Data set [1] deals with Leishmania tropica. Nature of the data set: Antileishmanial activity against Leishmania tropica MHOM/A7/1974/SAF-K27 incubated for 48 hrs by Neubauer hemocytometer analysis. To be noted: MHOM/A7/1974/SAF-K27, 48 h. It counts as functional, organism-based.
For a further data set, the target named is T1, Pteridine reductase 1 (Leishmania major, UniProt Q01782).
T1 sequence (Q01782 whole entry): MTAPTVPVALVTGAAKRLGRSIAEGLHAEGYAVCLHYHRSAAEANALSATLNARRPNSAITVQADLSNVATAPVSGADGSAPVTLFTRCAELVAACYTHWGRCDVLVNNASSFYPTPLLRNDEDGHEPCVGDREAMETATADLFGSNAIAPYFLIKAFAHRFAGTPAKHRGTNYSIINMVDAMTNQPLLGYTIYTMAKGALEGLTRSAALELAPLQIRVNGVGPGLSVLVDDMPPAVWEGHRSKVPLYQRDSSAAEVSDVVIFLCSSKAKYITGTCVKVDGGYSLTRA
The experiment in a line: Inhibition of recombinant Leishmania major PTR1 expressed in Escherichia coli BL21 using folic acid as substrate in presence of NADPH.

Data set [2] can be described thus: (§1) Cytotoxicity against mouse RAW264.7 cells by alamar blue method. It counts as toxicity, cell-based. As to conditions: mouse, RAW264.7 cells. On the technique in general: Alamar Blue is a resazurin reagent that responds to reducing activity.
In a further data set the test system is RAW264.7. The data set is described as §1. The class given is toxicity, cell-based. To be noted: raw264.7.
Data set [3] has as its system Leishmania tropica. Nature of the data set: Antileishmanial activity against Leishmania tropica MHOM/A7/1974/SAF-K27 incubated for 48 hrs by XTT method. As to conditions: MHOM/A7/1974/SAF-K27, 48 h. The class given is functional, organism-based. On the technique in general: Formazan colour is commonly taken as a measure of viable cells.
Data set [4] in a line: (§2) Cytotoxicity against mouse L929 cells by alamar blue method. It counts as toxicity, cell-based. As to conditions: mouse, L929 cells.
A further data set concerns L929. The description is as §2. The class given is toxicity, cell-based. As to conditions: l929.
Data set [5] concerns DHFR (human) versus PTR1 (Leishmania major). The experiment in a line: Selectivity index, ratio of IC50 for human DHFR to IC50 for Leishmania major PTR1. To be noted: human DHFR enzyme and Leishmania major PTR1 enzyme, read-out: Ratio IC50. The class given is toxicity.
In another data set the target is T2, Dihydrofolate reductase (Homo sapiens, UniProt P00374).
T2 sequence (P00374 whole entry): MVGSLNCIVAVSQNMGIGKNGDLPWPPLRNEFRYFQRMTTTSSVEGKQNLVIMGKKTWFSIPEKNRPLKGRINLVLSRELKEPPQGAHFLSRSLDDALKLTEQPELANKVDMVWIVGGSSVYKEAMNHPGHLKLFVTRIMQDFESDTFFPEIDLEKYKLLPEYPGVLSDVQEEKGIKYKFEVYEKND
Nature of the data set: Inhibition of human DHFR using dihydrofolate as substrate in presence of NADPH. The class given is toxicity.

Data set [6] has as its system Leishmania infantum. The experiment in a line: Antileishmanial activity against Leishmania infantum MHOM/TN/1980/IPT1 incubated for 48 hrs by Neubauer hemocytometer analysis. To be noted: MHOM/TN/1980/IPT1, 48 h. The class given is functional, organism-based.
Data set [7] relates to Leishmania infantum. Nature of the data set: Antileishmanial activity against Leishmania infantum MHOM/TN/1980/IPT1 incubated for 48 hrs by XTT method. The class given is functional, organism-based. To be noted: MHOM/TN/1980/IPT1, 48 h.

Values after ≈ are worked out from the molar mass of the structure shown.

As for `O=C(Nc1nc2cnc(N3CCCC3)nc2s1)c1ccc(Cl)c([N+](=O)[O-])c1`, the IC50 with Leishmania tropica [1] is 10.2 µg/mL (≈ 25.1 µM); on Pteridine reductase 1, 14.9 µM; in [2] it was 8.98 µg/mL (≈ 22.2 µM); with Leishmania tropica [3], 10.6 µg/mL (≈ 26.2 µM); in data set [4], 24.4 µg/mL (≈ 60.2 µM); at Dihydrofolate reductase it was 373 µM. Moreover, the IC50 with Leishmania infantum [6] is 12.3 µg/mL (≈ 30.3 µM); with Leishmania infantum [7] it was 12.7 µg/mL (≈ 31.3 µM). The “log10 IC50 (µg/mL)” value came to 0.95 in the data set on RAW264.7 and 1.39 with L929. Moreover, the selectivity ratio in data set [5] stood at 25.1.

For the origin of these results see ChEMBL document CHEMBL5352486, “Design, synthesis, in vitro - In vivo biological evaluation of novel thiazolopyrimidine compounds as antileishmanial agent with PTR1 inhibition” (Eur J Med Chem, 2023).
